Where “and” joins values, the source holds several entries; their conditions need not be identical. Equal entries are not always repeated. Toxic doses and inconclusive results are not listed. No stated cut-off is given here; in the data, active means T/C of 150% or more; inactive means T/C below 125%.
Test system: L1210 leukemia ip in BDF1 mice, survival T/C
Assay: NCI In Vivo Anticancer Drug Screen. Data for tumor model L1210 Leukemia (intraperitoneal) in B6D2F1 (BDF1) mice
Conditions: endpoint: mean survival time, higher = longer survival
Outline: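 Transplantable tumor model; survival measured in treated vs vehicle control mice. Value = treated/control.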

[1] = dose: 100.0 mg/kg/injection, schedule: Q01DX009 (ip), vehicle: saline with Tween-80
[2] = dose: 100.0 mg/kg/injection, schedule: Q04DX003 (ip), vehicle: saline with Tween-80
[3] = dose: 200.0 mg/kg/injection, schedule: Q01DX009 (ip), vehicle: saline with Tween-80
[4] = dose: 200.0 mg/kg/injection, schedule: Q04DX003 (ip), vehicle: saline with Tween-80
[5] = dose: 400.0 mg/kg/injection, schedule: Q01DX009 (ip), vehicle: saline with Tween-80
[6] = dose: 400.0 mg/kg/injection, schedule: Q04DX003 (ip), vehicle: saline with Tween-80
[7] = dose: 100.0 mg/kg/injection, schedule: Q01DX009 (ip), vehicle: Klucel (hydroxypropylcellulose) (HPC)
[8] = dose: 200.0 mg/kg/injection, schedule: Q01DX009 (ip), vehicle: Klucel (hydroxypropylcellulose) (HPC)
[9] = dose: 400.0 mg/kg/injection, schedule: Q01DX009 (ip), vehicle: Klucel (hydroxypropylcellulose) (HPC)
[10] = dose: 100.0 mg/kg/injection, schedule: Q04DX003 (ip), vehicle: saline
[11] = dose: 15.0 mg/kg/injection, schedule: Q01DX Z (ip), vehicle: carboxymethylcellulose (CMC)
[12] = dose: 30.0 mg/kg/injection, schedule: Q01DX Z (ip), vehicle: carboxymethylcellulose (CMC)
[13] = dose: 100.0 mg/kg/injection, schedule: Q01DX001 (ip), vehicle: saline
[14] = dose: 200.0 mg/kg/injection, schedule: Q01DX001 (ip), vehicle: saline
[15] = dose: 400.0 mg/kg/injection, schedule: Q01DX001 (ip), vehicle: saline

Measured: T/C

COc1ccc(N=Nc2ccccc2)cc1
inactive: dose: 100.0 mg/kg/injection, schedule: Q04DX003 (ip), vehicle: Klucel (hydroxypropylcellulose) (HPC) 95 % of control | dose: 200.0 mg/kg/injection, schedule: Q04DX003 (ip), vehicle: Klucel (hydroxypropylcellulose) (HPC) 94 % of control | dose: 400.0 mg/kg/injection, schedule: Q04DX003 (ip), vehicle: Klucel (hydroxypropylcellulose) (HPC) 94 % of control

COC(=O)C1(C(=O)OC)CCC=CC1=O
inactive: [1] 107 % of control | [2] 97 % of control | [3] 93 % of control | [4] 101 % of control | [5] 109 % of control | [6] 106 % of control

CC1CN=C(c2cccc(NC(=O)c3ccc(C(=O)Nc4cccc(C5=NCC(C)N5)c4)c(N)c3)c2)N1 (centres undefined)
inactive: dose: 1.25 mg/kg/injection, schedule: Q01DX Z (ip), vehicle: water 91 % of control | dose: 2.5 mg/kg/injection, schedule: Q01DX Z (ip), vehicle: water 89 % of control

Nc1c(Cl)ncnc1NC1CCC(CO)C1 (centres undefined)
inactive: dose: 100.0 mg/kg/injection, schedule: Q01DX001 (ip), vehicle: carboxymethylcellulose (CMC) 103 % of control | dose: 200.0 mg/kg/injection, schedule: Q01DX001 (ip), vehicle: carboxymethylcellulose (CMC) 106 % of control

NC(=O)/C=C/c1c[nH]c2nccnc12
inactive: dose: 1.56 mg/kg/injection, schedule: Q01DX009 (ip), vehicle: water 100 % of control | dose: 3.12 mg/kg/injection, schedule: Q01DX009 (ip), vehicle: water 95 % of control | dose: 6.25 mg/kg/injection, schedule: Q01DX009 (ip), vehicle: water 100 % of control | dose: 12.5 mg/kg/injection, schedule: Q01DX009 (ip), vehicle: water 103 % of control | dose: 25.0 mg/kg/injection, schedule: Q01DX009 (ip), vehicle: water 86 % of control and 90 % of control

COc1ccc(Cl)cc1NC(=O)Nc1ccc(SC)cc1
inactive: [7] 98 % of control | [8] 94 % of control | [9] 96 % of control

CCN(CC)CCOc1ccccc1C(=O)CCc1ccccc1
inactive: dose: 12.5 mg/kg/injection, schedule: Q01DX009 (ip), vehicle: saline 93 % of control | dose: 25.0 mg/kg/injection, schedule: Q01DX009 (ip), vehicle: saline 93 % of control | dose: 25.0 mg/kg/injection, schedule: Q04DX003 (ip), vehicle: saline 99 % of control | dose: 50.0 mg/kg/injection, schedule: Q01DX009 (ip), vehicle: saline 100 % of control | dose: 50.0 mg/kg/injection, schedule: Q04DX003 (ip), vehicle: saline 97 % of control | [10] 102 % of control

CCCCCCOC(=O)/C=C(/C)OCCCCCC
inactive: dose: 100.0 mg/kg/injection, schedule: Q01DX009 (ip), vehicle: saline 97 % of control | [10] 94 % of control | dose: 200.0 mg/kg/injection, schedule: Q01DX009 (ip), vehicle: saline 95 % of control | dose: 200.0 mg/kg/injection, schedule: Q04DX003 (ip), vehicle: saline 96 % of control | dose: 400.0 mg/kg/injection, schedule: Q01DX009 (ip), vehicle: saline 92 % of control

O=C(Nc1ccc(C2=NCCN2)c(Cl)c1)c1cccc(C(=O)Nc2ccc(C3=NCCN3)c(Cl)c2)c1
inactive: [11] 93 % of control | [12] 86 % of control

O=S1(=O)CCC(N(N=C2CCCCC2)c2ccccc2)C1 (centres undefined)
inactive: dose: 50.0 mg/kg/injection, schedule: Q01DX009 (ip), vehicle: Klucel (hydroxypropylcellulose) (HPC) 95 % of control | [7] 98 % of control | [8] 106 % of control | [9] 95 % of control

CCN(CC)CCOC(=O)/C=C/c1ccc([N+](=O)[O-])o1
inactive: dose: 50.0 mg/kg/injection, schedule: Q01DX Z (ip), vehicle: saline 103 % of control | dose: 75.0 mg/kg/injection, schedule: Q01DX Z (ip), vehicle: saline 109 % of control | dose: 113.0 mg/kg/injection, schedule: Q01DX Z (ip), vehicle: saline 112 % of control

CC(C=O)CC1CCCCC1 (centres undefined)
inactive: [1] 97 % of control | [2] 95 % of control | [3] 95 % of control | [4] 97 % of control | [5] 95 % of control | [6] 95 % of control

CC(=O)OCCC(OC(C)=O)c1ccccn1 (centres undefined)
inactive: dose: 50.0 mg/kg/injection, schedule: Q01DX001 (ip), vehicle: saline 100 % of control | [13] 103 % of control | [14] 97 % of control | [15] 103 % of control

CCCCN(CCCC)C(=O)c1[nH]cnc1/N=N\N(C)C
inactive: dose: 50.0 mg/kg/injection, schedule: Q01DX009 (ip), vehicle: saline with Tween-80 117 % of control | dose: 100.0 mg/kg/injection, schedule: Q01DX001 (ip), vehicle: saline with Tween-80 106 % of control | [1] 108 % of control | dose: 200.0 mg/kg/injection, schedule: Q01DX001 (ip), vehicle: saline with Tween-80 118 % of control

C/C(=N\NC(N)=O)C(F)(F)F
inactive: [11] 110 % of control | [12] 93 % of control | dose: 60.0 mg/kg/injection, schedule: Q01DX Z (ip), vehicle: carboxymethylcellulose (CMC) 100 % of control and 103 % of control | dose: 120.0 mg/kg/injection, schedule: Q01DX Z (ip), vehicle: carboxymethylcellulose (CMC) 103 % of control and 109 % of control | dose: 120.0 mg/kg/injection, schedule: Q01DX Z (oral), vehicle: carboxymethylcellulose (CMC) 109 % of control | dose: 240.0 mg/kg/injection, schedule: Q01DX Z (ip), vehicle: carboxymethylcellulose (CMC) 112 % of control | dose: 240.0 mg/kg/injection, schedule: Q01DX Z (oral), vehicle: carboxymethylcellulose (CMC) 101 % of control | dose: 480.0 mg/kg/injection, schedule: Q01DX Z (oral), vehicle: carboxymethylcellulose (CMC) 90 % of control

CCN(CC)CCOc1ccc(C(=O)/C(=C/c2ccc(OC)cc2)c2ccccc2)cc1
inactive: dose: 100.0 mg/kg/injection, schedule: Q04DX003 (sc), vehicle: olive oil, sesame oil, peanut oil 100 % of control | dose: 200.0 mg/kg/injection, schedule: Q04DX003 (sc), vehicle: olive oil, sesame oil, peanut oil 96 % of control | dose: 400.0 mg/kg/injection, schedule: Q04DX003 (sc), vehicle: olive oil, sesame oil, peanut oil 108 % of control

CCC(/C=N/NC(N)=O)c1ccccc1OC (centres undefined)
inactive: [13] 96 % of control | [14] 104 % of control | [15] 109 % of control

CCCCN=C1NC(N)=NC(C)(C)N1
inactive: dose: 100.0 mg/kg/injection, schedule: Q01DX001 (ip), vehicle: Klucel (hydroxypropylcellulose) (HPC) 98 % of control | dose: 200.0 mg/kg/injection, schedule: Q01DX001 (ip), vehicle: Klucel (hydroxypropylcellulose) (HPC) 102 % of control

O=[N+]([O-])c1c(Cl)sc(Cl)c1[N+](=O)[O-]
inactive: dose: 3.13 mg/kg/injection, schedule: Q01DX009 (ip), vehicle: saline sonified 98 % of control | dose: 6.25 mg/kg/injection, schedule: Q01DX009 (ip), vehicle: saline sonified 100 % of control | dose: 6.25 mg/kg/injection, schedule: Q04DX003 (ip), vehicle: Klucel (hydroxypropylcellulose) (HPC) 86 % of control | dose: 12.5 mg/kg/injection, schedule: Q01DX009 (ip), vehicle: saline sonified 101 % of control | dose: 12.5 mg/kg/injection, schedule: Q04DX003 (ip), vehicle: Klucel (hydroxypropylcellulose) (HPC) 86 % of control

CCOc1ccccc1/C=N/Nc1c2ccccc2nc2ccccc12
inactive: [13] 90 % of control | [14] 97 % of control | [15] 92 % of control
